From patent US6071916A, “HIV protease inhibitor” (priority 1998, dated 2000)
Where a name gives a salt, the structure may show the parent alone.

Legend:
HIV protease = conditions: assays described in WO 95/16688; cited from earlier work
[1] = oral absorption and bioavailability in animal models; type: in vivo
[2] = hydrophobic/hydrophilic nature in formulation; type: physicochemical; conditions: dispersion during formulation; HCl (dihydrate) requires wetting agents

SMILES	inhibition of HIV protease (HIV protease)	rate of absorption ([1]; compared with the existing HCl, HBr and methanesulfonate salts)	bioavailability ([1]; oral, animal models)	oral absorption ([1]; oral, animal models)	hydrophobic or hydrophilic nature [2]
CC(C)(C)NC(=O)[C@@H]1CN(Cc2cc3ccccc3o2)CCN1C[C@@H](O)C[C@@H](Cc1ccccc1)C(=O)N[C@H]1c2ccccc2C[C@H]1O [Compound A, N-(2(R)-hydroxy-1(S)-indanyl)-2(R)-phenylmethyl-4-(S)-hydroxy-5-(1-(4-(2-benzo[b]furanylmethyl)-2(S)-N'-(t-butylcarboxamido)-piperazinyl))-pentaneamide]	potent inhibitor of HIV protease	–	–	–	–
CC(C)(C)NC(=O)[C@@H]1CN(Cc2cc3ccccc3o2)CCN1C[C@@H](O)C[C@@H](Cc1ccccc1)C(=O)N[C@H]1c2ccccc2C[C@H]1O [sulfate salt]	–	more rapidly absorbed than the existing HCl, HBr and methanesulfonate salts	much greater	much greater	hydrophilic
CC(C)(C)NC(=O)[C@@H]1CN(Cc2cc3ccccc3o2)CCN1C[C@@H](O)C[C@@H](Cc1ccccc1)C(=O)N[C@H]1c2ccccc2C[C@H]1O [HCl (dihydrate) salt, reference compound]	–	–	–	poor	extremely hydrophobic
